The source of these data is patent publication USRE36494E, “2-aralkoxy and 2-alkoxy adenosine derivatives as coronary vasodilators and antihypertensive agents” (Discovery Therapeutics, Inc., priority 1993, dated 2000).

The target of test [1] is T1, A1 receptors of the SA node (Cavia porcellus, UniProt P47745).
T1 construct: perfused hearts from female Sprague-Dawley guinea pigs in an isolated Langendorff heart preparation; from tissue; host or cells: isolated perfused guinea pig heart (Langendorff), nodal/conducting tissue
T1 sequence (P47745 1-326): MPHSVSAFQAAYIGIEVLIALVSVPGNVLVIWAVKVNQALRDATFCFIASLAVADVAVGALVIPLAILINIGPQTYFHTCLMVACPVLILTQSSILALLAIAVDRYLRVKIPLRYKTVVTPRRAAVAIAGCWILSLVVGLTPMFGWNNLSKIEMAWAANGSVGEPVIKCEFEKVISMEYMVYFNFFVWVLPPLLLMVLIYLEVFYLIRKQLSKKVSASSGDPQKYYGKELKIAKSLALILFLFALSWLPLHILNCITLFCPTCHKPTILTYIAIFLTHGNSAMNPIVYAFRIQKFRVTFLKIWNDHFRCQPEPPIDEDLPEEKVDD
In words: SQ (stimulus to Q) interval prolongation (A1 effect), isolated perfused Langendorff heart. Details: species or system guinea pig (female Sprague-Dawley guinea pigs). The settings on record: concentration for half-maximal prolongation of stimulus to Q interval; infusion into aortic cannula, stepwise every 5 minutes; read-out: SQ Prolongation (A1) ED50. On the procedure: (§1) Assays of the cardiovascular potency of the above compounds at the A1 receptors of the SA node and at the A2 receptor of the coronary artery employed perfused hearts from female Sprague-Dawley guinea pigs in an isolated Langendorff heart preparation. An assay consists of an infusion of a spectophotometrically standardized solution of test compound directly into the aortic cannula at rates increasing stepwise every 5 minutes. Collection of the total cardiac effluent during the first half of each infusion period provides a measure of coronary flow (A2 effect). The concentration of test compound required to produce a half-maximal increase in coronary flow is determined. Registration of the ECG assesses the effect of the test compound on SA node (stimulus to Q interval, A1 effect). The concentration of test compound required to produce a half-maximal prolongation of stimulus to Q interval is determined. […] The ratio of A1 and A2 effects of test compounds are calculated to provide the selectivity ratio.

For test [2], the target named is T2, A2 receptor of the coronary artery (Cavia porcellus, UniProt P46616).
T2 construct: perfused hearts from female Sprague-Dawley guinea pigs in an isolated Langendorff heart preparation; from tissue; host or cells: isolated perfused guinea pig heart (Langendorff), coronary vasculature
The experiment in a line: Coronary blood flow increase (A2 effect), isolated perfused Langendorff heart. Also on record: species or system guinea pig (female Sprague-Dawley guinea pigs). The settings on record: for Selectivity (A1/A2): ratio of SQ prolongation ED50 (A1) to coronary flow EC50 (A2); for affinity and selectivity for A2 adenosine receptors (in words): qualitative statement. On the procedure:
as §1

T2 sequence (P46616 whole entry, the tested form may be a part): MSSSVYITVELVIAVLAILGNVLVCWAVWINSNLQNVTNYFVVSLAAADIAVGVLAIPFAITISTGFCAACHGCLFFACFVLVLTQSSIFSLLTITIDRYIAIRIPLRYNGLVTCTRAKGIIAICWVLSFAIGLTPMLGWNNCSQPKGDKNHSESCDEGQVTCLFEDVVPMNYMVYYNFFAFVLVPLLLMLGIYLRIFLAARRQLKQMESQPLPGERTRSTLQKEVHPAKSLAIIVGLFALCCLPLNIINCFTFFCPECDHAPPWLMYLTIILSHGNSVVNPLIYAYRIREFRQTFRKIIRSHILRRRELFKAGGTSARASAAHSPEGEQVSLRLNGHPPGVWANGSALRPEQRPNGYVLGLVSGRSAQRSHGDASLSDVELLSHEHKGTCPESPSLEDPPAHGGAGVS

Regarding `Nc1nc(OCCCc2ccccc2)nc2c1ncn2[C@@H]1O[C@H](CO)[C@@H](O)[C@H]1O` [Example 1, 2-(3-phenyl-1-propoxy)adenosine], the EC50 in test [1] worked out at 20 µM. Moreover, the “Selectivity (A1/A2)” value in test [2] came to 326.
With `Nc1nc(OCCc2ccc(F)cc2)nc2c1ncn2[C@@H]1O[C@H](CO)[C@@H](O)[C@H]1O` [Example 2, 2-[2-(4-fluorophenyl)ethoxy]adenosine], the EC50 in test [1] is 25.6 µM. In test [2], the “affinity and selectivity for A2 adenosine receptors (in words)” value (“affinity and selectivity” for short) was “high affinity and selectivity”; the “Selectivity (A1/A2)” value was 29432.
In the case of `Nc1nc(OC2CCCC2)nc2c1ncn2[C@@H]1O[C@H](CO)[C@@H](O)[C@H]1O` [Example 3, 2-Cyclopentyloxyadenosine], the “Selectivity (A1/A2)” value in test [2] amounted to 866.
`Nc1nc(OC2CCCCC2)nc2c1ncn2[C@@H]1O[C@H](CO)[C@@H](O)[C@H]1O` [Example 4, 2-Cyclohexyloxyadenosine]: the “Selectivity (A1/A2)” value in test [2] was found to be 152.
`Nc1nc(OCc2ccccc2)nc2c1ncn2[C@@H]1O[C@H](CO)[C@@H](O)[C@H]1O` [Example 6, 2-benzyloxyadenosine]: in test [1], the EC50 came to 6.31 µM. The “Selectivity (A1/A2)” value in test [2] came to 15.
The corresponding values for `Nc1nc(OCCc2ccccc2)nc2c1ncn2[C@@H]1O[C@H](CO)[C@@H](O)[C@H]1O` [Example 7, 2-(2-phenylethoxy)adenosine] are 20 µM and 7126.
On to `COc1ccccc1CCOc1nc(N)c2ncn([C@@H]3O[C@H](CO)[C@@H](O)[C@H]3O)c2n1` [Example 8, 2-[2-(2-methoxyphenyl)ethoxy]adenosine], for which, in test [1], the EC50 is 35.5 µM. For the same compound, the “Selectivity (A1/A2)” value in test [2] turned out to be 1109.
Turning to `COc1cccc(CCOc2nc(N)c3ncn([C@@H]4O[C@H](CO)[C@@H](O)[C@H]4O)c3n2)c1` [Example 9, 2-[2-(3-methoxyphenyl)ethoxy]adenosine], the EC50 in test [1] is 16.2 µM. For the same compound, in test [2], the “Selectivity (A1/A2)” value is given as 6238.
For `COc1ccc(CCOc2nc(N)c3ncn([C@@H]4O[C@H](CO)[C@@H](O)[C@H]4O)c3n2)cc1` [Example 10, 2-[2-(4-methoxyphenyl)ethoxy]adenosine], in test [1], the EC50 was determined as 19.7 µM. In test [2], the “affinity and selectivity” value is “high affinity and selectivity”; the “Selectivity (A1/A2)” value came to 14089.
Take `Cc1ccccc1CCOc1nc(N)c2ncn([C@@H]3O[C@H](CO)[C@@H](O)[C@H]3O)c2n1` [Example 11, 2-[2-(2-methylphenyl)ethoxy]adenosine]: in test [1], the EC50 was 25.1 µM. The “Selectivity (A1/A2)” value in test [2] was found to be 6610.
For `COc1cc(CCOc2nc(N)c3ncn([C@@H]4O[C@H](CO)[C@@H](O)[C@H]4O)c3n2)cc(OC)c1OC` [Example 12, 2-[2-(3,4,5-trimethoxyphenyl)ethoxy]adenosine], in test [1], the EC50 amounted to 47.3 µM. For the same compound, the “Selectivity (A1/A2)” value in test [2] was 2151.
`Nc1nc(OCCc2cccs2)nc2c1ncn2[C@@H]1O[C@H](CO)[C@@H](O)[C@H]1O` [Example 13, 2-[2-(2-thienyl)ethoxy]adenosine]: in test [1], the EC50 was 11.9 µM. Also, in test [2], the “Selectivity (A1/A2)” value is on record as 3212.
In the case of `Nc1nc(OCCc2cccc3ccccc23)nc2c1ncn2[C@@H]1O[C@H](CO)[C@@H](O)[C@H]1O` [Example 15, 2-[2-(1-naphthyl)ethoxy]adenosine], the EC50 in test [1] came out at 8.41 µM.
The same measure, in the same setting: with `Nc1nc(OCCc2c[nH]c3ccccc23)nc2c1ncn2[C@@H]1O[C@H](CO)[C@@H](O)[C@H]1O` [Example 16, 2-[2-(3-indolyl)ethoxy]adenosine] the figure was 14.1 µM.
For `CC(COc1nc(N)c2ncn([C@@H]3O[C@H](CO)[C@@H](O)[C@H]3O)c2n1)c1ccccc1` (stereo partly drawn) [Example 17, 2-(2-phenyl-1-propoxy)adenosine], in test [2], the “Selectivity (A1/A2)” value was 5899.
For `CC[C@@H](COc1nc(N)c2ncn([C@@H]3O[C@H](CO)[C@@H](O)[C@H]3O)c2n1)c1ccccc1` [Example 18], the EC50 in test [1] was 18.8 µM; in test [2] (concentration for half-maximal increase in coronary flow, infusion into aortic cannula, stepwise every 5 minutes), 0.374 µM. For the same compound, the “Selectivity (A1/A2)” value in test [2] was 50.
For the compound `CC[C@H](COc1nc(N)c2ncn([C@@H]3O[C@H](CO)[C@@H](O)[C@H]3O)c2n1)c1ccccc1` [Example 19, 2-[(2S)-phenyl-1-butoxy]adenosine], in test [2], the “Selectivity (A1/A2)” value is reported as 872.
Consider `Nc1nc(OCCCCc2ccccc2)nc2c1ncn2[C@@H]1O[C@H](CO)[C@@H](O)[C@H]1O` [Example 20, 2-(4-phenyl-1-butoxy)adenosine], for which the “Selectivity (A1/A2)” value in test [2] came out at 743.
Take `Nc1nc(OCCCCCc2ccccc2)nc2c1ncn2[C@@H]1O[C@H](CO)[C@@H](O)[C@H]1O` [Example 21, 2-(5-phenyl-1-pentoxy)adenosine]: in test [1], the EC50 was determined as 4.6 µM.
With `CCNC(=O)[C@H]1O[C@@H](n2cnc3c(N)nc(OCCc4ccccc4)nc32)[C@H](O)[C@@H]1O` [Example 22, 2-(2-phenyl)ethoxy-5'-N-ethylcarboxamidoadenosine], in test [2], the “affinity and selectivity” value was “high affinity and selectivity”; the “Selectivity (A1/A2)” value turned out to be 11509.
With `Nc1nc(OCCc2ccc3ccccc3c2)nc2c1ncn2[C@@H]1O[C@H](CO)[C@@H](O)[C@H]1O` [Example 24, 2-[2-(2-naphthyl)ethoxy]adenosine], the EC50 in test [1] was 11.4 µM.
